These results are taken from US20230323420A1, “PERFUSION MEDIUM” (Boehringer Ingelheim International GmbH, priority 2017, published 2023).

One series concerns CHO cultures. The note with it: cited from earlier work.
Another series deals with CHO-DG44 cells. The series can be described thus: Cell cycle analysis of perfusion bioreactor culture (Example 2). The format is cell-based, Chinese hamster. The note with it: 150 μM and 200 μM retinyl acetate, 1.6 mM ferric citrate, compared to control, data not shown. Here is the method:
Samples were taken near-daily for: VCD and viability (Vi-Cell, Beckman-Coulter), osmolality (Advanced Instrument Inc), pH, CO2, and O2 (RapidLab 1240 BGA, Siemens), and metabolite readings (Cedex BioHT, Roche). DeltaV was used to control and Finesse TruBio software was used to record and monitor cell bleed, permeate, and media pump rates. Cell samples were taken throughout the experiment and stored at −20° C. in 70% EtOH after treatment with Accumax (Innovative Cell Technologies) for later cell cycle analysis using propidium iodide stain with RNase (BD Biosciences) on a Guava easyCyte flow cytometer (EMD Millipore).

Series [1] relates to Chinese hamster ovary (CHO) DG44 cells expressing a recombinant monoclonal IgG1 antibody. The series can be described thus: Deep well plate model of perfusion (small scale culture): viable cell density, viability, titer. In kind it is cell-based.
The test system is the same in series [2]. Described as above. In kind it is cell-based. The procedure: Axygen 24 well pre-sterilized deep-well plates (Neta Scientific Inc, Hainesport, NJ) were used as a scale-down model of perfusion. A starting cell density of 20×10^6 cells/mL (3 mL per well) was targeted to simulate the high cell density growth phase of perfusion. Chinese hamster ovary (CHO) DG44 cells expressing a recombinant monoclonal IgG1 antibody were grown in proprietary chemically defined, serum-free perfusion media at 33° C. with 5% CO2, 80% humidity, and 200 rpm shaking speed in an incubator with a 5.0 cm orbit diameter for 4 or 8 days. A 0.1 mL sample was taken for cell count daily prior to media exchange. Medium exchanges were performed daily by centrifuging the plate at 1200 rpm for 5 minutes, removing 2 mL supernatant, and resuspending cells in 2.1 mL fresh, pre-warmed media at 37° C. (in early days, this equates to a ⅔ volume exchange, whereas in later days the cell pellet grows such that 2 mL is nearly the entire liquid volume, equating to a 1 VVD exchange). Supernatant was saved to perform process analytics.
Retinyl acetate was tested in concentrations ranging from 5 μM to 600 μM in proprietary chemically defined, serum-free perfusion medium with 230 μM or 3.1 mM ferric citrate. A 152 mM stock solution of retinyl acetate was prepared by dissolving 50 mg/mL retinyl acetate powder to prepare a 152 mM stock (Sigma-Aldrich; CAS 127-47-9) in absolute ethanol, or 75 mg/mL retinyl acetate for 228 mM stock, for each experimental run; after thorough mixing, the solutions were sterile-filtered with 0.22 μm Steriflips (EMD Millipore). This stock was diluted down further with perfusion medium to provide a working stock. Media aliquot concentrations were 30% higher than the targeted final concentration in each treatment to compensate for residual media left in the well and cell pellet volume. The media were prepared in proprietary chemically defined, serum-free media (either 230 μM or 3.1 mM Fe background) as shown in Table 2. Control condition had no retinyl acetate supplement; ethanol control added the solvent with no retinyl acetate at the level equivalent to the greatest amount for each experiment. These media aliquots were used in the daily media exchanges as described above.
Viability and viable cell density were measured by Vi-CELL Cell Counter using the Trypan blue dye exclusion method (Beckman Coulter Life Sciences, Indianapolis, IN). Titer, metabolites, and lactate dehydrogenase (LDH) levels were measured using a Cedex BioHT (Roche Diagnostics GmbH, Mannheim, Germany). These titer measurements had been previously verified to be in agreement with in house HPLC Protein A methods. Osmolality was measured with a 2020 Multi-Sample Micro Osmometer (Advanced Instruments, Inc, Norwood, MA) based on freezing point depression.
A small scale cell culture using CHO DG44 cells expressing a recombinant monoclonal IgG1 antibody was treated with ferric citrate and retinyl acetate at different concentrations to assess the effect on cell viability, essentially as described for the small scale culture in Example 1.
The source holds these as a separate data set.

Series [3] deals with CHO DG44 cells expressing a recombinant monoclonal IgG1 antibody. The series can be described thus: High density perfusion culture in bioreactors, 350 μM ferric citrate (Example 3). The format is cell-based, Chinese hamster. Here is the method: A high density perfusion culture of CHO DG44 cells expressing a recombinant monoclonal IgG1 antibody was treated with low iron (Fe) and vitamin A (retinyl acetate) to assess the effect on cell proliferation, and the cell bleed. A bench-scale experiment was performed essentially as described above for Example 2. During the growth phase (d0-d10 post-inoculation) there was no cell bleed, allowing the viable cell density (VCD) to reach desired level. On day 8, ferric citrate (Sigma-Aldrich; CAS 3522-50-7) was added to the perfusion media at a concentration of 350 μM. Once optimal cell density was reached on day 10, cell bleed was initiated to maintain constant VCD (steady state). The calculation governing the cell bleed rate was based on maintaining the Incyte biomass capacitance probe value (Hamilton company) which corresponded to the target VCD.
On day 25 day, retinyl acetate (Sigma-Aldrich, CAS 127-47-9) was introduced to one of the bioreactors, with one bioreactor acting as control with no retinyl acetate. Retinyl acetate was dissolved in absolute ethanol and sterile-filtered with a 0.2 μm filter to make a sterile stock solution of 152 mM before addition to media bags for final concentrations of 100 μM retinyl acetate. Retinyl acetate was then added to the bioreactor on day 25. The bag of new treatment media was attached to the media inlet line of the bioreactors and in order to ensure an instantaneous achievement of target retinyl acetate concentration within the vessels (as opposed to the gradual increase which would occur via introduction through the perfusion medium), a bolus addition of 1.3 mL retinyl acetate stock solution was added directly to the treatment bioreactor via injection through a sterile addition line. Samples were taken and analyzed as explained for Example 2.

In series [4] the test system is Chinese hamster ovary (CHO) DG44 cells. In words: Cell cycle analysis of deep well culture (propidium iodide, flow cytometry). The note with it: 400 μM retinyl acetate, 3.1 mM ferric citrate, cultivation for 7 days; control cells 62.6%. The format is cell-based. Here is the method: Cell cycle analysis was performed on days 1 and 7 of deep well culture. Cells were grown in medium containing 3.1 mM ferric citrate and 400 μM retinyl acetate or control medium and fixed on days 1 and 7 by a wash in cold PBS before suspension in 70% ethanol. Cells were stored at −20° C. until analysis. 1e5 cells per sample were stained with propidium iodide with RNase (BD Biosciences) for DNA content and analyzed by flow cytometry on a Guava easyCyte flow cytometer (EMD Millipore).
(In general: In flow cytometry, cells or beads pass a laser one at a time.)

Series [5] concerns CHO-DG44 cells expressing a recombinant monoclonal IgG1 antibody. The series can be described thus: High density perfusion culture in 2 L bioreactors, 1.6 mM ferric citrate (Example 2). The format is cell-based, Chinese hamster. The note with it: for decrease of cell bleed rate: 1.6 mM ferric citrate background media, over 4 days (FIG. 5B). Here is the method: A high density perfusion culture of CHO-DG44 cells expressing a recombinant monoclonal IgG1 antibody was treated with high iron (Fe) and vitamin A (retinyl acetate) to assess the effect on cell proliferation, and by extension, the cell bleed. A bench-scale experiment was performed in three 2 L perfusion bioreactors with 0.2 μm PES hollow fibers (Spectrum Labs) on alternating tangential flow (ATF) at 0.8 L/min flow rate. Bioreactors were maintained at: 37° C., 60% dissolved oxygen, 348 RPM agitation, and a target pH of 7.0 (pH target was not always achieved). A CHO DG44 cell line expressing a monoclonal antibody was inoculated into the bioreactors at approximately 1e6 cells/mL in proprietary chemically defined, serum-free inoculation medium at a 1:4 dilution of conditioned to fresh inoculation media. This culture was grown in batch mode (no flow in or out) for 2 days, at which time perfusion was started with BI's perfusion media (manufactured by SAFC). […] During the growth phase (d0-d10 post-inoculation) there was no cell bleed, allowing the viable cell density (VCD) to reach desired level. On day 8, ferric citrate (Sigma-Aldrich; CAS 3522-50-7) was added to the perfusion medium at a concentration of 1.6 mM, targeting a pH of 6.9. Once optimal cell density was reached on day 10, cell bleed was initiated to maintain constant VCD (steady state). The calculation governing the cell bleed rate was based on maintaining the Incyte biomass capacitance probe value (Hamilton) which corresponded to the target VCD.
After steady state was established for several days, retinyl acetate (Sigma-Aldrich, CAS 127-47-9) was introduced to two of the bioreactors, with one bioreactor acting as control with no retinyl acetate (Table 4). Retinyl acetate was dissolved in absolute ethanol and sterile-filtered with a 0.2 μm filter to make a sterile stock solution of 152 mM before addition to media bags for final concentrations of 50 μM, 100 μM, 150 μM, or 200 μM retinyl acetate (in four respective bags). Each treatment bioreactor then received retinyl acetate at a first concentration between day 15 and 20 (50 μM or 100 μM) and at a second concentration between days 20-24 (150 or 200 μM) as shown in Table 4. On day 15 and 20 for each treatment, the bag of new treatment media was attached to the media inlet line of the bioreactors. […]
Samples were taken near-daily for: VCD and viability (Vi-Cell, Beckman-Coulter), osmolality (Advanced Instrument Inc), pH, CO2, and O2 (RapidLab 1240 BGA, Siemens), and metabolite readings (Cedex BioHT, Roche). […]

Setting [6] is: 100 μM retinyl acetate, 350 μM ferric citrate, days 25 to 29 (FIG. 7).

For `CC1=C(/C=C/C(C)=C/C=C/C(C)=C/CO)C(C)(C)CCC1` [retinol], the cytotoxicity result with CHO cultures (higher retinol concentrations (above 10 to 50 μM)) is reported as “cytotoxic”. In addition, the “growth and protein synthesis” value in the series on CHO cultures (retinol 10 to 50 μM) is “inhibitory effect on growth and protein synthesis”.
`CC(=O)OC/C=C(C)/C=C/C=C(C)/C=C/C1=C(C)CCCC1(C)C` [retinyl acetate]: the “cell percentage in G0/G1 phase” value with CHO-DG44 cells was “increase in cell percentage in G0/G1 phase”. In addition, the “SGR (specific growth rate)” value in series [1] (2 μM retinyl acetate, data not shown) is “no effect on SGR was observed”. Further, the specific growth rate result in series [1] (350 μM ferric citrate and 200 μM retinyl acetate, data not shown) is recorded as “decrease in specific growth rate”; in series [3] (setting [6]) it was “markedly decreased”. Moreover, the viability result was “negative effect on viability after 5 days” in series [1] (Chinese hamster, 5 days, 200 μM); “unaffected” in series [2] (same retinyl acetate concentrations (200 μM), 3.1 mM ferric citrate (FIG. 8)); “same high viability” in series [3] (100 μM retinyl acetate, 350 μM ferric citrate, versus 350 μM ferric citrate alone (FIG. 6)); “not affected” in series [5] (50 μM to 200 μM retinyl acetate, 1.6 mM ferric citrate (FIG. 4)). Also, the viable cell density result is “reduced the viable cell density in a dose-dependent manner” in series [2] (5 μM to 20 μM retinyl acetate, 3.1 mM ferric citrate (FIG. 1A)); “reduced the viable cell density in a dose-dependent manner” in series [2] (40 μM to 100 μM retinyl acetate, 3.1 mM ferric citrate (FIG. 2A)); “sharply declined from about day 2” in series [2] (600 μM retinyl acetate, 3.1 mM ferric citrate (FIG. 3A)). Also, in series [2] (60 μM to 400 μM retinyl acetate, 3.1 mM ferric citrate, small scale studies), the cell proliferation result is recorded as “inhibit cell proliferation”. Also, in series [2] (200 μM and 400 μM retinyl acetate, 3.1 mM ferric citrate (FIG. 3A)), the “growth / viable cell density” value is “further inhibited growth resulting in a lower viable cell density”. Further, the “effect on viable cell density” value in series [2] (200-400 μM retinyl acetate, 230 μM ferric citrate, data not shown) is given as “present, but less pronounced”. Besides, in series [2] (low ferric citrate (230 μM) versus high ferric citrate (3.1 mM), same retinyl acetate level), the “decrease in growth rate” value was “less pronounced in low ferric citrate”. The “cell specific productivity (qp)” value in series [2] (retinyl acetate with 3.1 mM ferric citrate, data not shown) is “unaffected”. Further, the cell bleed entry in series [3] (setting [6]) is listed as “markedly decreased”. Also, the “reduction of cell bleed rate” value in series [3] (100 μM vitamin A, 350 μM ferric citrate background media, over 5 days (FIG. 7A)) was “approximately 50%”. Further, the “cells in the G0/G1 phase” value in series [4] is recorded as 86%. Also, the bleed flow rate result in series [5] (50 μM or 100 μM retinyl acetate, 1.6 mM ferric citrate, days 15 to 20, compared to control (FIG. 5A)) is “reduced in a dose-dependent manner”. Besides, the figures for the “decrease of cell bleed rate” value in series [5] (150 μM vitamin A) and in series [5] (200 μM vitamin A) were “approximately 45%” and “roughly 70%”, respectively.
